Read-outs that look alike come from different tables or passages of the source.
How the values were obtained:
[1] = Phase 1 single-dose study, plasma PK of solriamfetol by level of renal function; type: in vivo, human; conditions: for AUCt, percent ratio (90% confidence interval) of geometric mean relative to Group 1 / AUC∞, percent ratio (90% confidence interval) of geometric mean relative to Group 1 / Cmax, percent ratio (90% confidence interval) of geometric mean relative to Group 1 / AUC(0-t) / AUC(0-inf) / Cmax / Vd/F / Tmax / half-life: single 75-mg dose; for AUC(0-t) / AUC(0-inf) / Cmax / Vd/F / Tmax / half-life: both sexes, human, plasma, oral, 75 mg; for Vd/F: read-out: Vd/F, mean ± SD (%CV); for Tmax: read-out: tmax, median (min, max); for half-life: read-out: t½, mean ± SD (%CV) (converted)
Protocol: In healthy subjects with normal renal function, solriamfetol HCl is renally excreted ~90% unchanged within 48 hours of administration. Thus, renal impairment, as well as hemodialysis in individuals with end-stage renal disease (ESRD), could affect the PK of solriamfetol HCl. To ascertain the precise impact of renal impairment and hemodialysis on pharmacokinetics and safety of solriamfetol RCl, a Phase 1, parallel-group, open-label, single-dose study was conducted at 2 U.S. sites. The protocol was approved by the IntegReview Institutional Review Board (Austin, Texas), and the study was conducted in compliance with the protocol, the Guideline for Good Clinical Practice E6; the US Code of Federal Regulations pertaining to conduct and reporting of clinical studies; the Clinical Trials Directive of the European Medicines Agency (Directive 2001/20/EC); and the Declaration of Helsinki. Written informed consent was obtained from each subject before enrollment in the study and before performance of any study-related procedure. See, also, Zomorodi K, Chen D, Lee L, Lasseter K, Marbury T. An Open-Label, Single-Dose, Phase 1 Study of the Pharmacokinetics and Safety of JZP-110 in Subjects With Normal or Impaired Renal Function and With End-Stage Renal Disease Requiring Hemodialysis [abstract]. Sleep. 2017;40 (suppl):A382-383.
Eligible participants were men and non-pregnant, non-lactating women between the ages of 18 and 80 years, with a body mass index (BMI) ≤ 35 kg/m^2. Women of childbearing potential were required to have used a medically accepted method of birth control for at least 2 months prior to the first dose of study drug, with continued use throughout the study period and for 30 days after study completion.
Eligible participants were assigned to 1 of 5 groups according to renal disease status as measured by the estimated glomerular filtration rate (eGFR) on the day prior to dosing, calculated using the Modification in Diet in Renal Disease equation. Group 1 consisted of healthy participants with normal renal function (eGFR ≥ 90 mL/min/1.73 m^2) and served as the control group. Groups 2, 3, and 4 had mild, moderate, and severe renal impairment based on eGFRs of 60-89, 30-59, and < 30 mL/min/1.73 m^2, respectively. Group 5 consisted of participants with ESRD who required ≥ 3 hemodialysis treatments per week for the preceding 3 months. […] Group 1 was enrolled last to facilitate matching the mean age, BMI, and sex distribution of Groups 2-5.
Groups 1-4 received one dose of solriamfetol HCl (89.3 mg; equivalent to 75-mg solriamfetol) on day 1; Group 5 received one dose equivalent to 75-mg dose on day 1 followed by 4-hour hemodialysis (designated Group 5.2), and one dose equivalent to 75-mg solriamfetol on day 8 without hemodialysis (designated Group 5.1). All doses were administered on an empty stomach following an overnight fast except for participants in Group 5, who received a standardized snack on day 7 and breakfast early on day 8 before starting an 8-hour fast. Participants remained fasting for 4 hours after administration, with water allowed except for 1 hour before and after dosing.
Serial blood samples of approximately 4 mL were collected within 30 minutes prior to dosing and at 0.5, 1, 1.5, 2, 2.5, 3, 4, 6, 8, 10, 12, 24, 36, and 48 hours post-dose in Groups 1-3, with continued sampling at 60 and 72 hours post-dose in Groups 4 and 5. All blood samples were collected into labeled K2EDTA tubes by direct venipuncture or indwelling catheter and kept on ice until the samples were centrifuged within 30 minutes of collection at approximately 2500 rpm (1315 × g) at 4° C. for 10 minutes. The plasma was transferred into polypropylene tubes for freezing and storage at -70° C. until analysis.
Bioanalytical analyses were performed by a central laboratory (KCAS, LLC, Shawnee, Kansas) using validated proprietary methods that included extraction/derivatization and liquid chromatography-tandem mass spectrometry (LC-MS/MS). […]

[2] = 12-week placebo-controlled trials comparing various doses; cited from earlier work
[3] = Group 3 moderate renal impairment
[4] = Group 4 severe renal impairment
[5] = Group 5.1 ESRD without hemodialysis
[6] = Group 5.2 ESRD with hemodialysis
[7] = Group 5.1 ESRD without hemodialysis, n=3
[8] = Group 5.2 ESRD with hemodialysis, n=6

SMILES: NC(=O)OC[C@H](N)Cc1ccccc1 [solriamfetol, [R]-2-amino-3-phenylpropylcarbamate]
- Cmax, lower relative to normal renal function ([1]; ESRD requiring hemodialysis): ≤ 19%
- overall exposure, fold increase relative to normal renal function ([1]; ESRD requiring hemodialysis): ≥ 4 fold
- t½, fold longer relative to normal renal function ([1]; ESRD requiring hemodialysis): ≥ 13 fold
- Cmax, higher versus Group 1 ([1]; Group 2 mild renal impairment): approximately 6%
- total exposure (AUC∞), higher relative to Group 1 ([1]; Group 2 mild renal impairment): 53%
- AUCt, percent ratio (90% confidence interval) of geometric mean relative to Group 1 ([1]; Group 2 mild renal impairment): 158.3 (97.5, 256.9) %
- AUC∞, percent ratio (90% confidence interval) of geometric mean relative to Group 1 ([1]; Group 2 mild renal impairment): 152.9 (92.9, 251.7) %
- Cmax, percent ratio (90% confidence interval) of geometric mean relative to Group 1 ([1]; Group 2 mild renal impairment): 105.9 (80.6, 139.0) %
- Cmax, higher versus Group 1 [1, 3]: ~4%
- total exposure (AUC∞), higher relative to Group 1 [1, 3]: 129%
- AUCt, percent ratio (90% confidence interval) of geometric mean relative to Group 1 [1, 3]: 219.2 (133.7, 359.6) %
- AUC∞, percent ratio (90% confidence interval) of geometric mean relative to Group 1 [1, 3]: 229.2 (135.6, 387.4) %
- Cmax, percent ratio (90% confidence interval) of geometric mean relative to Group 1 [1, 3]: 104.3 (78.4, 138.9) %
- Cmax, higher versus Group 1 [1, 4]: ~11%
- total exposure (AUC∞), higher relative to Group 1 [1, 4]: 339%
- AUCt, percent ratio (90% confidence interval) of geometric mean relative to Group 1 [1, 4]: 380.4 (208.4, 694.4) %
- AUC∞, percent ratio (90% confidence interval) of geometric mean relative to Group 1 [1, 4]: 438.6 (217.3, 885.3) %
- Cmax, percent ratio (90% confidence interval) of geometric mean relative to Group 1 [1, 4]: 110.5 (81.1, 150.6) %
- overall exposure (AUCt), fold higher relative to Group 1 ([1]; Group 5.1 ESRD without dialysis on day 8): approximately 5 fold
- Cmax, lower versus Group 1 [1, 5]: approximately 3%
- exposure, higher versus Group 1 [1, 5]: approximately 518%
- AUCt, percent ratio (90% confidence interval) of geometric mean relative to Group 1 [1, 5]: 617.8 (385.3, 990.8) %
- AUC∞, percent ratio (90% confidence interval) of geometric mean relative to Group 1 [1, 5]: 1290.6 (542.78, 3068.5) %
- Cmax, percent ratio (90% confidence interval) of geometric mean relative to Group 1 [1, 5]: 97.2 (76.1, 124.1) %
- overall exposure (AUCt), fold higher relative to Group 1 ([1]; Group 5.2 ESRD with dialysis on day 1): about 4 fold
- Cmax, lower versus Group 1 [1, 6]: ~19%
- exposure, higher versus Group 1 [1, 6]: ~357%
- AUCt, percent ratio (90% confidence interval) of geometric mean relative to Group 1 [1, 6]: 457.2 (296.6, 704.9) %
- AUC∞, percent ratio (90% confidence interval) of geometric mean relative to Group 1 [1, 6]: 1496.5 (748.7, 2991.2) %
- Cmax, percent ratio (90% confidence interval) of geometric mean relative to Group 1 [1, 6]: 80.9 (63.4,103.1) %
- AUC(0-t) ([1]; Group 1 normal renal function, over 48 h, read-out: AUCt, mean ± SD (%CV)): 4850 ± 3450 ng·h/mL
- AUC(0-t) ([1]; Group 1 normal renal function, over 48 hours, read-out: AUCt, geometric LS mean (converted)): 4090 ng·h/mL
- AUC(0-inf) ([1]; Group 1 normal renal function, read-out: AUC∞, geometric LS mean): 4360 ng·h/mL
- AUC(0-inf) ([1]; Group 1 normal renal function, read-out: AUC∞, mean ± SD (%CV)): 5270 ± 4100 ng·h/mL
- Cmax ([1]; Group 1 normal renal function, read-out: Cmax, geometric LS mean): 482 ng/mL
- Cmax ([1]; Group 1 normal renal function, read-out: Cmax, mean ± SD (%CV)): 499 ng/mL
- Vd/F ([1]; Group 1 normal renal function): 164 L
- Tmax ([1]; Group 1 normal renal function): 1.3 h
- half-life ([1]; Group 1 normal renal function): 7.6 ± 5.1 h
- AUC(0-t) ([1]; Group 2 mild renal impairment, over 48 h, read-out: AUCt, mean ± SD (%CV)): 6610 ng·h/mL
- AUC(0-t) ([1]; Group 2 mild renal impairment, over 48 hours, read-out: AUCt, geometric LS mean (converted)): 6470 ng·h/mL
- AUC(0-inf) ([1]; Group 2 mild renal impairment, read-out: AUC∞, geometric LS mean): 6670 ng·h/mL
- AUC(0-inf) ([1]; Group 2 mild renal impairment, read-out: AUC∞, mean ± SD (%CV)): 6840 ng·h/mL
- Cmax ([1]; Group 2 mild renal impairment, read-out: Cmax, geometric LS mean): 510 ng/mL
- Cmax ([1]; Group 2 mild renal impairment, read-out: Cmax, mean ± SD (%CV)): 522 ng/mL
- Vd/F ([1]; Group 2 mild renal impairment): 147 L
- Tmax ([1]; Group 2 mild renal impairment): 1.5 h
- half-life ([1]; Group 2 mild renal impairment): 9.1 ± 1.6 h
- AUC(0-t) ([1]; Group 3 moderate renal impairment, over 48 h, read-out: AUCt, mean ± SD (%CV)): 9230 ng·h/mL
- AUC(0-t) ([1]; Group 3 moderate renal impairment, over 48 hours, read-out: AUCt, geometric LS mean (converted)): 8960 ng·h/mL
- AUC(0-inf) ([1]; Group 3 moderate renal impairment, read-out: AUC∞, geometric LS mean): 10000 ng·h/mL
- AUC(0-inf) ([1]; Group 3 moderate renal impairment, read-out: AUC∞, mean ± SD (%CV)): 10500 ng·h/mL
- Cmax ([1]; Group 3 moderate renal impairment, read-out: Cmax, geometric LS mean): 503 ng/mL
- Cmax ([1]; Group 3 moderate renal impairment, read-out: Cmax, mean ± SD (%CV)): 517 ng/mL
- Vd/F [1, 3]: 152 L
- Tmax [1, 3]: 1.5 h
- half-life [1, 3]: 14.3 ± 4.5 h
- AUC(0-t) ([1]; Group 4 severe renal impairment, over 72 hours, read-out: AUCt, geometric LS mean (converted)): 15500 ng·h/mL
- AUC(0-inf) ([1]; Group 4 severe renal impairment, read-out: AUC∞, geometric LS mean): 19100 ng·h/mL
- AUC(0-inf) ([1]; Group 4 severe renal impairment, read-out: AUC∞, mean ± SD (%CV)): 23600 ng·h/mL
- Cmax ([1]; Group 4 severe renal impairment, read-out: Cmax, geometric LS mean): 533 ng/mL
- Cmax ([1]; Group 4 severe renal impairment, read-out: Cmax, mean ± SD (%CV)): 553 ng/mL
- Vd/F [1, 4]: 157 L
- Tmax [1, 4]: 2 h
- half-life [1, 4]: 29.6 ± 14.4 h
- AUC(0-inf) ([1]; Group 5.1 ESRD without hemodialysis, n=3, read-out: AUC∞, geometric LS mean): 56300 ng·h/mL
- Vd/F [1, 7]: 154 L
- half-life [1, 7]: 100 h
- AUC(0-t) ([1]; Group 5.1 ESRD without hemodialysis, over 72 hours, read-out: AUCt, geometric LS mean (converted)): 25300 ng·h/mL
- Cmax ([1]; Group 5.1 ESRD without hemodialysis, read-out: Cmax, geometric LS mean): 469 ng/mL
- Cmax ([1]; Group 5.1 ESRD without hemodialysis, read-out: Cmax, mean ± SD (%CV)): 474 ng/mL
- Tmax [1, 5]: 3.3 h
- AUC(0-inf) ([1]; Group 5.2 ESRD with hemodialysis, n=6, read-out: AUC∞, geometric LS mean): 65300 ng·h/mL
- Vd/F [1, 8]: 231 L
- half-life [1, 8]: 165 h
- AUC(0-t) ([1]; Group 5.2 ESRD with hemodialysis, over 72 hours, read-out: AUCt, geometric LS mean (converted)): 18700 ng·h/mL
- Cmax ([1]; Group 5.2 ESRD with hemodialysis, read-out: Cmax, geometric LS mean): 390 ng/mL
- Cmax ([1]; Group 5.2 ESRD with hemodialysis, read-out: Cmax, mean ± SD (%CV)): 396 ng/mL
- Tmax [1, 6]: 1.5 h
- AUC0-inf, fold compared with normal renal function ([1]; mild renal impairment): ~1.53 fold
- t½, fold increase compared with normal renal function ([1]; mild renal impairment): approximately 1.2 fold
- AUC0-inf, fold compared with normal renal function ([1]; moderate renal impairment): ~2.29 fold
- t½, fold increase compared with normal renal function ([1]; moderate renal impairment): ~1.9 fold
- AUC0-inf, fold compared with normal renal function ([1]; severe renal impairment): ~4.39 fold
- t½, fold increase compared with normal renal function ([1]; severe renal impairment): ~3.9 fold
- adverse effects (headache, nausea, decreased appetite, anxiety and others), dependence on dose [2]: dose-dependent
